How the values were obtained:
[1] = molecular target: vaccinia triphosphatase (Vaccinia virus, UniProt P04298); details: read-out: Km for ATP; cited from earlier work
[2] = molecular target: LEF-4 (Autographa californica nuclear polyhedrosis virus, UniProt P41477); details: read-out: Km for ATP; cited from earlier work
[3] = molecular target: T1, yeast RNA triphosphatase Cet1p (Saccharomyces cerevisiae, UniProt O13297); experiment: Manganese-dependent ATP hydrolysis by Cet1p; format: biochemical; details: truncated Cet1(201-549)p
T1 construct: His-tag; made in house; host or cells: Escherichia coli BL21(DE3)
Method: (§1) (FIG. 8A) Protein titration. Reaction mixtures (10 μl) containing 50 mM Tris HCl (pH 7.0), 5 mM DTT, 2 mM MnCl2, 1 mM [γ^32P]ATP, and either Cet1p, Cet1(201-549)p, or Cet1(246-549)p were incubated for 15 min at 30° C. Pi release is plotted as a function of input protein. (FIG. 8B) Kinetics. Reaction mixtures (100 μl) containing 50 mM Tris HCl (pH 7.0), 5 mM DTT, 2 mM MnCl2, 1 mM [γ^32P]ATP, and either 8, 16, or 32 nM Cet1p were incubated at 30° C. Aliquots (10 μl) were withdrawn at the times indicated and quenched immediately by the addition of […] of 5 M formic acid. Pi release is plotted as a function of time. (FIG. 8C) Hydrolysis of [α^32P]ATP. […] The products were analyzed by TLC. […] An otherwise identical reaction containing 1 mM [γ^32P]ATP was analyzed in parallel; Pi release (●). […]
(§2) The extent of ^32Pi relase from [Υ^32P]ATP during a 15 min reaction was proportional to the amount of input Cetlp protein (FIG. 8A). ^32Pi accumulated with time over 30 min; the rate of reaction varied linearly with Cetlp concentration (FIG. 8B). From a plot of initial rate versus enzyme concentration, a turnover number of 25 s^−1 was calculated. Cetlp catalyzed the quantitative conversion of [α^32P]ATP to [α^32P]ADP. […] No formation of [α^32P]AMP from [α^32P]ATP was detected, even after 20-45 min of incubation, by which time all of the nucleotide had been converted to ADP. […]

[4] = molecular target: T2, yeast RNA triphosphatase Cet1p (Saccharomyces cerevisiae, UniProt O13297); experiment: Manganese-dependent ATP hydrolysis by Cet1p; format: biochemical; details: full-length Cet1p, 2 mM MnCl2, pH 7.0, 30° C.
T2 construct: His-tag; made in house; host or cells: Escherichia coli BL21(DE3)
T2 sequence (O13297 1-549): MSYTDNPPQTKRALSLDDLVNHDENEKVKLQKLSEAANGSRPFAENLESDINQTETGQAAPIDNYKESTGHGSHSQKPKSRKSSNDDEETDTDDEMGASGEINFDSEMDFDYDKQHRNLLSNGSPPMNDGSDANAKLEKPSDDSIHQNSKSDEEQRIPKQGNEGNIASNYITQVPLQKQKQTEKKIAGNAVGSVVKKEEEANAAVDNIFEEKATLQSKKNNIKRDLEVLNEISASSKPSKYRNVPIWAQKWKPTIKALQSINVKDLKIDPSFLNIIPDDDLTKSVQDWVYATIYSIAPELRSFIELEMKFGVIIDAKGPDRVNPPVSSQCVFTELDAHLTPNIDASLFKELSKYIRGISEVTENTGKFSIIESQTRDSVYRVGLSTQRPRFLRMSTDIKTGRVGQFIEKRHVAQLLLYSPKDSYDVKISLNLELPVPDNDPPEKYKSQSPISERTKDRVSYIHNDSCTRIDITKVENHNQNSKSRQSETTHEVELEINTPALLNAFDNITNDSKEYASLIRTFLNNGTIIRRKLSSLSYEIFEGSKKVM
Method: as §1, §2

[5] = molecular target: T3, human cap methyltransferase (Hcm1p) (Homo sapiens, UniProt O43148); format: biochemical
T3 construct: His-tag (pET16b leader) (N); made in house; host or cells: Escherichia coli BL21(DE3)

[6] = molecular target: T4, Mce1(1-210)p RNA triphosphatase domain (Mus musculus, UniProt O55236); details: 0.5 mM divalent cation; cited from earlier work
T4 construct: The N-terminal portion of Mce1p from residues 1-210 is an autonomous RNA triphosphatase domain; made in house; host or cells: bacteria
T4 sequence (O55236 1-210): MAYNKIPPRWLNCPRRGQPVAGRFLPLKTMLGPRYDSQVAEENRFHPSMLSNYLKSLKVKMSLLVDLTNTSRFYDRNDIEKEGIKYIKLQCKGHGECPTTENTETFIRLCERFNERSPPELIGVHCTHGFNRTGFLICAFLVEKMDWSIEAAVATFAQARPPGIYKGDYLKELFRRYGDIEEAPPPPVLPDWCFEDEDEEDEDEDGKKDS

T3 sequence (O43148 whole entry): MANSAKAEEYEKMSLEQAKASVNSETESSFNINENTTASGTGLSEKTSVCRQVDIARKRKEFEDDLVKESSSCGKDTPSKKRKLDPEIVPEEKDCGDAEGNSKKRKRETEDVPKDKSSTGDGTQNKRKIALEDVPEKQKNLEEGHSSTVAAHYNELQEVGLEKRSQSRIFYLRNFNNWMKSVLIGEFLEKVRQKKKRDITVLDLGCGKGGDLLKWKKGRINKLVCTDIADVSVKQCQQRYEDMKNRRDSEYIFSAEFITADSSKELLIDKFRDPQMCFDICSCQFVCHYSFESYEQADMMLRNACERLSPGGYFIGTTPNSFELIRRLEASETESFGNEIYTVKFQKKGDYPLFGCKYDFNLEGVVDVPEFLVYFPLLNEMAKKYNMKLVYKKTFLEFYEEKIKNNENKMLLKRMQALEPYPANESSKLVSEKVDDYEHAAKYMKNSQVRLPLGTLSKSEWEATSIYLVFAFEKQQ
LEF-4, sequence (P41477 whole entry, the tested form may be a part): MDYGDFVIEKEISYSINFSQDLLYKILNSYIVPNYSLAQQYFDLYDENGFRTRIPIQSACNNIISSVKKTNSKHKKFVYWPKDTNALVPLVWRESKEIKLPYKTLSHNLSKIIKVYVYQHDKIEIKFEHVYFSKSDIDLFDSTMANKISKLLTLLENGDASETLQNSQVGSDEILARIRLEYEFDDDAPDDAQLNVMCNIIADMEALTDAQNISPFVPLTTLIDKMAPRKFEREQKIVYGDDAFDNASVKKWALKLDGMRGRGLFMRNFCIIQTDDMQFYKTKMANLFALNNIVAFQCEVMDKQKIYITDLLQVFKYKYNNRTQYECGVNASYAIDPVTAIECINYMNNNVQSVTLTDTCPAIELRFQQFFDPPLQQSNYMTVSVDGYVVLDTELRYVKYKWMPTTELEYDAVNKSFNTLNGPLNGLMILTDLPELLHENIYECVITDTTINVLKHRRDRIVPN

## Nc1ncnc2c1ncn2[C@@H]1O[C@H](COP(=O)(O)OP(=O)(O)OP(=O)(O)O)[C@@H](O)[C@H]1O [ATP]
[1]
  Km: 800 µM
[2]
  Km: 43 µM
[3]
  Km: 3.3 µM
[4]
  Km: 2.8 µM

## C[S+](CC[C@H](N)C(=O)[O-])C[C@H]1O[C@@H](n2cnc3c(N)ncnc32)[C@H](O)[C@@H]1O (stereo partly shown) [AdoMet, S-adenosylmethionine]
[5]; peak glycerol gradient fraction of Hcm1p
  AdoMet concentration giving half-maximal activity: ~25 µM

## Nc1ncnc2c1ncn2[C@@H]1O[C@H](CSCC[C@H](N)C(=O)O)[C@@H](O)[C@H]1O [AdoHcy, S-adenosylhomocysteine]
[5]; 50 μM AdoMet plus 500 μM AdoHcy
  effect on cap methylation (FIG. 9, lane 4): partially inhibitory
[5]; 100 μM AdoHcy in the presence of 10 μM AdoMet
  reduction of cap methylation: 80%

## [Cl][Mn][Cl] [MnCl2]
[6]
  inhibition of RNA triphosphatase activity: 75%

## [Cl-].[Cl-].[Mg+2] [MgCl2]
[5]; 1 mM magnesium
  effect of magnesium on cap methylation: reduced by an order of magnitude
[6]
  inhibition of RNA triphosphatase activity: 75%
